Laboratory results published in patent US5204327A, “Treatment of cerebral edema with ANP pharmaceutical compositions” (Ashi Kasei Kogyo Kabushiki Kaisha, priority 1988, dated 1993).

Columns and labels:
[1] = system: vasogenic cerebral edema caused by cold injury; experiment: Effect on experimental vasogenic cerebral edema (investigation of administration time); type: in vivo, male Crj:CD (SD) rats; settings: for Water content of injured cerebral hemisphere (the mean ± standard error): peptide 100 μg/kg, glycerol solution 10 ml/kg, 24 hours after injury
Experimental: Using 212 male Crj:CD (SD) rats weighing 300 to 400 g, model animals of vasogenic cerebral edema caused by cold injury were prepared according to the method of Naruse et al. (Brain and Nerve, 33 (6): 569-575 (1981).
(§1) Peptide (II) obtained in Reference Example 1 was diluted with a physiological saline so that the peptide concentration became 100 μg/3 ml. The solution containing the peptide was continuously administered to a predetermined number of rats through the tail vein thereof in an amount of 3 ml per kg of body weight in 90 min so that the total dose of the administered peptide became 100 μg per kg of body weight. Thus, there were obtained six peptide (II)-administered groups.
As a control (solvent), 3 ml per kg of body, weight of the physiological saline was administered to a predetermined number of rats in substantially the same manner as mentioned above, to thereby obtain six physiological saline-administered groups.
As a control for the peptide, an aqueous 10% w/v glycerol solution containing 5% w/v fructose and 0.9% w/v sodium chloride was administered to a predetermined number of rats in substantially the same manner as mentioned above so that the total volume of the administered solution became 10 ml per kg of body weight, to thereby obtain six glycerol-administered groups.
24 hours after the rats were subjected to injury, rats were exsanguinated under ether anesthesia to kill them. Then, cerebra were extracted from the killed rats and each of the cerebra was individually divided into two cerebral hemispheres, namely, a hemisphere having ischemic part and a hemisphere having no ischemic part. The water content of each of the hemispheres was measured in substantially the same manner as in Example 1. In Table 3, the mean and the standard error of the water content of a brain tissue are shown together with the number of rats (n) subjected to experiment in each group.

[2] = system: ischemic cerebral edema caused by occlusion of middle cerebral artery; experiment: Effect on experimental ischemic cerebral edema (MCA occlusion, Tamura model); type: in vivo, male Wistar rats; settings: rats
Experimental: Using 41 male Wistar rats weighing 250 to 350 g, model animals of ischemic cerebral edema caused by occlusion of middle cerebral artery (hereinafter referred to as "MCA") were prepared according to the method of Tamura et al. (Journal of Cerebral Blood Flow and Metabolism, 1, 53-69 (1981)).
as §1, with “μg/10” for “μg/3”, “eleven” for “a predetermined number of”, “10” for “3”, “20” for “90”, “weight.” for “weight. Thus, there were obtained six peptide (II)-administered groups.”
The administration was conducted 6 times according to the following program. The first administration was conducted 30 minutes after the occlusion of MCA. The second administration was conducted in the morning of the next day of the first administration (2nd day). The third administration was conducted after 6 hours from the second administration. The fourth administration was conducted in the morning of the next day of the third administration (3rd day). […]
After one hour from the sixth administration, that is, 3 days after the rats had been subjected to occlusion of MCA, the rats were sacrificed. […] The water content of each of the hemispheres was measured.
The water content of a brain tissue was calculated by the following formula: [formula] wherein: W1 : weight of the cerebral hemisphere (wet basis)
W2 weight of the cerebral hemisphere (dry basis), which is measured after drying the wet cerebral hemisphere at 95° to 100° C. for 3 days.
The water contents calculated were statistically analyzed by the T-test to determine whether or not there is a significant difference between the water content of each of the groups to which peptide (II), peptide (III) and glycerol were individually administered and the water content of the control group to which physiological saline was administered. […]

[3] = system: vasogenic cerebral edema caused by cold injury; experiment: Effect on experimental vasogenic cerebral edema (cold injury); type: in vivo, male Crj:CD (SD) rats; settings: rats
Experimental: Using 42 male Crj:CD (SD) rats weighing 300 to 400 g, model animals of vasogenic cerebral edema caused by cold injury were prepared according to the method of Naruse et al. (Brain and Nerve, 33 (6): 569-575 (1981)). (Administration method)
Peptide (II) obtained in Reference Example 1 was diluted with a physiological saline so that the peptide concentration became […]. The solution containing the peptide was continuously administered to eleven rats through the tail vein thereof in an amount of […] of body weight so that the total dose of the administered peptide became 100 μg per kg of body weight, to thereby obtain a peptide (II)-administeredgroup.
Peptide (III) was administered to eight rats in the same manner as described above except that peptide (III) was used instead of peptide (II), to thereby obtain a peptide (III)-administered group.
As a control (solvent), 3 ml per kg of body weight of the physiological saline was administered to eleven rats in substantially the same manner as mentioned above, to thereby obtain a physiological saline-administered group.
As a control for the peptide, an aqueous 10% w/v glycerol solution containing 5% w/v fructose and 0.9% w/v sodium chloride was administered to twelve rats so that the total volume of the administered solution became 10 ml per kg of body weight, to thereby obtain a glycerol-administered group.
The administration of each of the peptide (II) solution, peptide (III) solution and physiological saline was started one hour before the making of cold injury and completed in 90 minutes. On the other hand, the administration of the glycerol solution was started 23 hours after the making of cold injury and completed in 30 minutes in accordance with the ordinary clinical method, so that the total volume of the administered glycerol solution became 10 ml/kg of body weight.
24 hours after the rats had been subjected to cold injury, rats were sacrificed under ether anesthesia. […]
The water content of each of the hemispheres was measured in substantially the same manner as in Example 1. […]

[4] = 3 days after MCA occlusion, peptide 100 μg/kg (glycerol 1 g/kg) tail vein, 6 administrations
[5] = 24 hours after cold injury, peptide 100 μg/kg tail vein started one hour before injury, 90 min, glycerol solution 10 ml/kg started 23 hours after injury

Question: What does the source list for `OCC(O)CO` [Glycerol, glycerol]?
Answer: increase in water content of a cerebral hemisphere, compared to physiological saline-administered groups ([1]; administered just after making the cold injury): significantly inhibited; Water content of injured cerebral hemisphere (the mean ± standard error) ([1]; administration 3 hours after the making of cold injury): 81.08 ± 0.20; Water content of injured cerebral hemisphere (the mean ± standard error) ([1]; administration 6 hours after the making of cold injury): 81.24 ± 0.19; Water content of injured cerebral hemisphere (the mean ± standard error) ([1]; administration 22 hours after the making of cold injury): 81.05 ± 0.17; Water content of injured cerebral hemisphere (the mean ± standard error) ([1]; administration during the making of cold injury): 80.79 ± 0.10; Water content of injured cerebral hemisphere (the mean ± standard error) ([1]; administration just after the making of cold injury): 80.77 ± 0.14; Water content of injured cerebral hemisphere (the mean ± standard error) ([1]; administration just before the making of cold injury): 81.22 ± 0.20; increase in water content of the injured cerebral hemisphere, compared to physiological saline-administered groups ([1]; remaining administration times (all except just after the cold injury)): not significantly inhibited; Water content of brain tissue (the mean ± standard error), hemisphere having ischemic part [2, 4]: 79.34 ± 0.15; Water content of brain tissue (the mean ± standard error), hemisphere having no ischemic part [2, 4]: 78.51 ± 0.14; increase in water content of the cerebral hemisphere having ischemic part, compared to physiological saline-administered group ([2]; MCA occlusion, T-test): significantly inhibited; Water content of brain tissue (the mean ± standard error), injured cerebral hemisphere [3, 5]: 80.65 ± 0.23; Water content of brain tissue (the mean ± standard error), not injured cerebral hemisphere [3, 5]: 79.62 ± 0.19; increase in water content of the injured cerebral hemisphere, compared to physiological saline-administered group ([3]; cold injury): not so markedly inhibited
